Where two headings read alike, the source gives them in different places. Ends that are not written are not given here.
Columns and labels:
[1] = biological target: T1, MRGPRX1 (Homo sapiens, UniProt Q96LB2); test: Ligand bias factor (β value), Gi vs Gq, BAM8-22 as reference; type: cell-based; conditions: Suppl Fig 11f-h
T1 construct: we fused a BRIL tag at the N-terminus of full-length wild-type MRGPRX1; FLAG; expressed in transfected cells; host or cells: HEK293
Experimental: Human Embryonic Kidney 293 (HEK293) cells were obtained from the Cell Resource Center of Shanghai Institute for Biological Sciences (Chinese Academy of Sciences, Shanghai, China) and cultured in DMEM with 10% FBS for functional studies. Transient transfection in the current study was performed with Lipofectamine 2000 (Invitrogen), according to the manufacturer’s instructions. For studying the peptide-induced G-protein activation through MRGPRX1, G-protein BRET probes were generated according to previous publications[13],[30],[31]. HEK293 cells were transfected with plasmids MRGPRX1 and G-protein probes. After 24 h, cells were reseeded into a 96-well plate with a density of 30,000-50,000 cells per well and incubated for an additional 24 h at 37 °C. For peptide-stimulated activity measurement, the BRET signal between Rluc8 and GFP2 was recorded after the addition of peptide ligands (final concentration:10^−10 – 10^−3 M) and coelenterazine 400a. The BRET signal was calculated as the ratio of the GFP2 emission to the Rluc8 emission. […]
are presented as the mean ± SEM (n=3). All data were analyzed by two-sided one-way ANOVA with Turkey test. […] Both CNF-Tx2 and Chloroquine were assessed for Gi signaling (f) and Gq signaling (g). The bias factor (β value) of CNF-Tx2 and Chloroquine was calculated using BAM8-22 as the reference.
R3c). The β value was calculated according to formulas. […]

[2] = system: MRGPRX2; test: Gαi-Gγ dissociation assay (BRET); type: cell-based, human; conditions: Fig 1e
Text: Fig. 1 Cryo-EM structure of MRGPRX1-Gi1/Gq complexes. a Cryo-EM density map of the BAM8-22-MRGPRX1-Gi1/Gq complexes and CNF-Tx2-MRGPRX1-Gi1 complex. b EM density maps of BAM8-22 in MRGPRX1-Gi1/Gq complexes and CNF-Tx2 in MRGPRX1-Gi1 complex. BAM8-22 in MRGPRX1-Gi1/Gq complexes, hot pink/cyan; CNF-Tx2, light pink; MRGPRX1, cornflower blue, salmon, and medium aquamarine from left to right; Gαi, dark orange; Gαq, yellow; Gβ, wheat; Gγ, light blue; scFv16 (single-chain variable fragment), gray. c Cut-away view of the ligand-binding pocket in the BAM8-22-MRGPRX1-Gi1/Gq, CNF-Tx2-MRGPRX1-Gi1, PAMP-12-MRGPRX2-Gi1 and KCA-CB1-Gi1 complexes. d The binding modes of the peptide agonists of MRGPRX1 compared with MRGPRX2. e The selectivity of different ligands for MRGPRX1 and MRGPRX2 was evaluated using Gαi-Gγ dissociation assay. Data are mean ± SEM of three independent experiments (n = 3). ΔBRET indicates the difference between the BRET signal recorded from cells treated with ligand and that from cells treated with vehicle.
Human Embryonic Kidney 293 (HEK293) cells were obtained from the Cell Resource Center of Shanghai Institute for Biological Sciences (Chinese Academy of Sciences, Shanghai, China) and cultured in DMEM with 10% FBS for functional studies. […] The BRET signal was calculated as the ratio of the GFP2 emission to the Rluc8 emission.

[3] = biological target: T1, MRGPRX1; type: cell-based; set-up: Emax: unit not given here; conditions: for Δpec50: Fig 3d, CNF-Tx2 mutant peptide vs CNF-Tx2 WT; for Emax: Suppl Fig 9a, CNF-Tx2 WT and mutant peptides
Experimental: Human Embryonic Kidney 293 (HEK293) cells were obtained from the Cell Resource Center of Shanghai Institute for Biological Sciences (Chinese Academy of Sciences, Shanghai, China) and cultured in DMEM with 10% FBS for functional studies. Transient transfection in the current study was performed with Lipofectamine 2000 (Invitrogen), according to the manufacturer’s instructions. For studying the peptide-induced G-protein activation through MRGPRX1, G-protein BRET probes were generated according to previous publications[13],[30],[31]. HEK293 cells were transfected with plasmids MRGPRX1 and G-protein probes. After 24 h, cells were reseeded into a 96-well plate with a density of 30,000-50,000 cells per well and incubated for an additional 24 h at 37 °C. For peptide-stimulated activity measurement, the BRET signal between Rluc8 and GFP2 was recorded after the addition of peptide ligands (final concentration:10^−10 – 10^−3 M) and coelenterazine 400a. The BRET signal was calculated as the ratio of the GFP2 emission to the Rluc8 emission.

T1 sequence (Q96LB2 whole entry, the tested form may be a part): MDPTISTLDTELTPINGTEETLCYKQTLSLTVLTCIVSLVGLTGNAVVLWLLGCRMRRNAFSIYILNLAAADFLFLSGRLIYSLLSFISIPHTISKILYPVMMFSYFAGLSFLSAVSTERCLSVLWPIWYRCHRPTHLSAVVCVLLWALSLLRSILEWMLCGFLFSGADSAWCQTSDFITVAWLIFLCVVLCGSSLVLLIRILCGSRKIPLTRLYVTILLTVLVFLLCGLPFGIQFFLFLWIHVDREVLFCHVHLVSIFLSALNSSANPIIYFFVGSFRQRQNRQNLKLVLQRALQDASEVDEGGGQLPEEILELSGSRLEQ

| Compound | Δpec50 ([3]; replicate 2) | Δpec50 ([3]; replicate 3) | Emax ([3]; replicate 1) | Emax ([3]; replicate 3) | further results |
| --- | --- | --- | --- | --- | --- |
| CCN(CC)CCCC(C)Nc1ccnc2cc(Cl)ccc12 (stereo not shown) [Chloroquine, chloroquine] |  |  |  |  | bias property, Gi vs Gq [1]: Gq bias ligand |
| bovine adrenal medulla peptide (BAM) 8-22 [BAM8-22] |  |  |  |  | recognition by MRGPRX2 [2]: cannot be recognized by MRGPRX2 |
| HSGILLAWSGPRNRAVRI-NH2 (C-terminus assumed) [F15A] | -6.871 | -1.837 | -0.06154 | -0.06172 |  |
| Hemoglobin b-chain(34-42): hemoglobin β-chain fragment, peptide ligand of MRGPRX1 (VVYPWTQRF; UniProt P68871 34-42, looked up, fragment) [reference compound] |  |  |  |  | potency and efficacy at MRGPRX1 ([3]; Suppl Fig 11c): reasonable potency and efficacy |
| HSGILLAWSGPRNRF-NH2 (C-terminus assumed) [ΔVRI] | -0.3933 | -0.1993 | 5.805 | -0.003279 | Emax ([3]; replicate 2): 0.1588; effect of C-terminal truncation on MRGPRX1 activity ([3]; compared to CNF-Tx2 wide-type peptide, Fig R4): almost abolished the activity of MRGPRX1 |
